# Molecular target: T1, Stearoyl-CoA desaturase (SCD) (Rattus norvegicus, UniProt P07308)
# T1 construct: The rat liver microsomes were collected according to the procedure described in Ozols (1990) Methods Enzm, 182:225; from tissue
# T1 sequence (P07308 1-358): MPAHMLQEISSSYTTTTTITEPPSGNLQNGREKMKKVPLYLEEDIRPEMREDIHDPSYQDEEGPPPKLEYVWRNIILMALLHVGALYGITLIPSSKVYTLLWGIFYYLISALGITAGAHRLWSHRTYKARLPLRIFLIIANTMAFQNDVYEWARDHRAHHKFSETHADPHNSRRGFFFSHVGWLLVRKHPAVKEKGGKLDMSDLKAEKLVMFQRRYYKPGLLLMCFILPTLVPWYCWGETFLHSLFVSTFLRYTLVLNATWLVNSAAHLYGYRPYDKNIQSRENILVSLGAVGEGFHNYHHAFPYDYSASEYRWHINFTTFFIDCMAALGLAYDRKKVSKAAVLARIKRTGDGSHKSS
# Test: SCD assay in rat liver microsomes ([3H]stearoyl CoA desaturation, adapted from Talamo and Bloch)
# Assay type: biochemical
# Details: rat liver microsomes 0.2 mg/ml final, 30 min preincubation, 45 min reaction, room temperature
# Excerpt: The identification of compounds of the invention as SCD inhibitors was readily accomplished using the SCD enzyme and microsomal assay procedure described in Talamo and Bloch (1969) Analytical Biochemistry 29:300-304.
# The rat liver microsomes were collected according to the procedure described in Ozols (1990) Methods Enzm, 182:225.
# Male Spraque Dawley Rats were placed on regimented fasting protocol for one week to stimulate SCD enzymatic activity. 48-hour periods were alternated between feeding and fasting to induce and down-regulate SCD activity with SCD activity being induced via carbohydrate rich diet prior to liver perfusion and collection.
# The rats were anesthetized with Isoflurane inhalation anesthetic, the liver perfused with cold phosphate buffered saline (PBS), weighed, and chilled in cold homogenization buffer (250 mM sucrose, 10 mM Tris, 1 mM EDTA, pH 7.6).
# The livers were finely minced and placed in homogenization tube. Homogenization buffer (40 mL) was added to the homogenization tube and the liver homogenized and centrifuged in a pre-chilled […] for 10 min at 4° C.
# Following centrifugation, the supernatant was collected and the pellet removed and discarded. The supernatant was centrifuge at 10,000 G for 35 minutes. Following centrifugation, the supernatant was collect and the pellet discarded. The supernatant was then centrifuged in a pre-chilled 45-Ti rotor at 130,000 G (41,000 RPM) for 90 minutes at 4° C.
# The supernatant was then aspirated off and the collected microsomal pellet washed in 25 mL of Glycerol PBS (1× PBS 7.4, 20% Glycerol) and resuspended in 4-5 volumes of Glycerol PBS.
# The protein concentration of the microsomal preparation was determined by BCA assay (Pierce) and the microsomes were aliquoted and stored at −80° C.
# Biobeads were ground to a smaller size in a mortar and pestle and resuspended in 3.6% TCA. The beads were then filtered through […] mesh.
# SCD was determined in the desaturase assay buffer. This assay buffer contained 0.1 M Tris buffer, pH 7.2, 2 mM NADH, 4.8 mM ATP, 0.5 mM CoA, 4.8 mM MgCl2, and 0.1% BSA.
# 1 μl of each compound of Formula I was added to an assay plate by a low volume (0.5-10 μL) multichannel pipette. A DMSO control was also prepared. The microsomes were quickly thawed and added to assay buffer so that a concentration of 0.4 mg/ml was achieved (0.2 mg/ml assay final). 50 μl of the microsome suspension in assay buffer was then added into each well in the compound assay plate, the plate was covered, and the microsomes preincubated with the compounds for 30 minutes on the orbital shaker, 50-75rpm, at room temperature. […]
row,Structure (SMILES),IC50
1,"O=C(O)c1ccc2nn(Cc3ccc(Cl)c(Cl)c3)c(=O)n2c1 [Compound 1, 2-(3,4-dichlorobenzyl)-3-oxo-2,3-dihydro-[1,2,4]triazolo[4,3-a]pyridine-6-carboxylic acid]",6200 nM
2,"CCCCCCNC(=O)c1ccc2nn(Cc3ccc(Cl)c(Cl)c3)c(=O)n2c1 [Compound 2, 2-(3,4-dichlorobenzyl)-N-hexyl-3-oxo-2,3-dihydro-[1,2,4]triazolo[4,3-a]pyridine-6-carboxamide]",190 nM
3,"O=C(NCCO)c1ccc2nn(Cc3ccc(Cl)c(Cl)c3)c(=O)n2c1 [Compound 3, 2-(3,4-dichlorobenzyl)-N-(2-hydroxyethyl)-3-oxo-2,3-dihydro-[1,2,4]triazolo[4,3-a]pyridine-6-carboxamide]",160 nM
4,"CC(C)(C)OC(=O)Nc1ccc2nn(Cc3ccc(Cl)c(Cl)c3)c(=O)n2c1 [Compound 4, tert-butyl 2-(3,4-dichlorobenzyl)-3-oxo-2,3-dihydro-[1,2,4]triazolo[4,3-a]pyridin-6-ylcarbamate]",3100 nM

# From patent publication US8088792B2, “Triazolopyridinone derivatives for use as stearoyl CoA desaturase inhibitors” (Gilead Sciences, Inc., priority 2008, dated 2012)
